Test results from PubChem BioAssay AID330 (DTP/NCI, 2004).
Values joined by “and” are separate entries in the source; they are usually repeats but may differ in a detail not shown here. Identical values can stand only once. Inconclusive results and toxic doses are left out. The calls were made as follows: active = survival T/C of 150% or more; inactive = T/C below 125% in these data. Peptide text beside a SMILES is read from it. * marks the point of attachment. For = O=C*

Test system: P388 leukemia ip, CD2F1 mice, survival T/C
Assay: NCI In Vivo Anticancer Drug Screen. Data for tumor model P388 Leukemia (intraperitoneal) in CD2F1 (CDF1) mice
Conditions: endpoint: median survival time, higher = longer survival
How it was run: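 Mice carrying the transplanted tumor received test compound or vehicle. Survival was recorded in each group, and the value is the treated-group measurement divided by that of the vehicle-treated control group.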

[1] = dose: 50.0 mg/kg/injection, schedule: Q01DX005 (ip), vehicle: Klucel (hydroxypropylcellulose) (HPC)
[2] = dose: 100.0 mg/kg/injection, schedule: Q01DX005 (ip), vehicle: Klucel (hydroxypropylcellulose) (HPC)
[3] = dose: 200.0 mg/kg/injection, schedule: Q01DX005 (ip), vehicle: Klucel (hydroxypropylcellulose) (HPC)
[4] = dose: 100.0 mg/kg/injection, schedule: Q04DX003 (ip), vehicle: Klucel (hydroxypropylcellulose) (HPC)
[5] = dose: 200.0 mg/kg/injection, schedule: Q04DX003 (ip), vehicle: Klucel (hydroxypropylcellulose) (HPC)
[6] = dose: 50.0 mg/kg/injection, schedule: Q01DX009 (ip), vehicle: Klucel (hydroxypropylcellulose) (HPC)
[7] = dose: 100.0 mg/kg/injection, schedule: Q01DX009 (ip), vehicle: Klucel (hydroxypropylcellulose) (HPC)
[8] = dose: 50.0 mg/kg/injection, schedule: Q01DX005 (ip), vehicle: saline with Tween-80

Measured: T/C

Brc1ccc(-c2ccc3nnnn3n2)s1
inactive: [1] 91 % of control | [2] 95 % of control | [3] 87 % of control

CCCCCCCCCCCC(=O)OCCS(=O)(=O)CCOC(=O)CCCCCCCCCCC
inactive: [4] 104 % of control | [5] 103 % of control | dose: 400.0 mg/kg/injection, schedule: Q04DX003 (ip), vehicle: Klucel (hydroxypropylcellulose) (HPC) 99 % of control

CSCCC(NC=O)C(=O)NC(C(=O)O)C(C)C (stereo not drawn) (For-Met-Val-OH; configuration not given here)
inactive: [1] 101 % of control | [2] 97 % of control | [3] 101 % of control

CC(=O)Nc1cccc(N=Cc2ccc[nH]2)c1
inactive: [4] 99 % of control | [5] 100 % of control

O=C(CC1CCCC/C1=N\O)NO (stereo not given)
inactive: [6] 100 % of control | dose: 100.0 mg/kg/injection, schedule: Q01DX001 (ip), vehicle: Klucel (hydroxypropylcellulose) (HPC) 106 % of control | [7] 100 % of control | dose: 200.0 mg/kg/injection, schedule: Q01DX001 (ip), vehicle: Klucel (hydroxypropylcellulose) (HPC) 112 % of control | dose: 200.0 mg/kg/injection, schedule: Q01DX009 (ip), vehicle: Klucel (hydroxypropylcellulose) (HPC) 117 % of control | dose: 400.0 mg/kg/injection, schedule: Q01DX001 (ip), vehicle: Klucel (hydroxypropylcellulose) (HPC) 109 % of control

CCCC1OC(/C=C/c2ccccc2)OCC1CC (stereo not given)
inactive: dose: 100.0 mg/kg/injection, schedule: Q01DX009 (ip), vehicle: saline with Tween-80 101 % of control and 108 % of control and 109 % of control | dose: 200.0 mg/kg/injection, schedule: Q01DX009 (ip), vehicle: saline with Tween-80 101 % of control and 116 % of control (2×) | dose: 400.0 mg/kg/injection, schedule: Q01DX009 (ip), vehicle: saline with Tween-80 116 % of control and 120 % of control

C1CCN2COCC2C1 (stereo not given)
inactive: dose: 12.5 mg/kg/injection, schedule: Q01DX005 (ip), vehicle: saline 108 % of control | dose: 25.0 mg/kg/injection, schedule: Q01DX005 (ip), vehicle: saline 117 % of control | dose: 100.0 mg/kg/injection, schedule: Q01DX005 (ip), vehicle: saline 120 % of control and 122 % of control

CCN(CC)CCNc1ccc(COC(C)=O)c2sc3ccccc3c(=O)c12
inactive: dose: 6.25 mg/kg/injection, schedule: Q01DX005 (ip), vehicle: saline with Tween-80 109 % of control and 123 % of control | dose: 12.5 mg/kg/injection, schedule: Q01DX005 (ip), vehicle: saline with Tween-80 121 % of control | [8] 118 % of control

FC(F)(F)C1(C(F)(F)F)[O][Sb]([c]2ccc(Cl)cc2)([c]2ccc(Cl)cc2)([c]2ccc(Cl)cc2)[O]1
inactive: [6] 103 % of control | [7] 88 % of control

CN1C(=O)C(=N[O-])C(=O)N(C)C1=O.CN1C(=O)C(=N[O-])C(=O)N(C)C1=O.CN1C(=O)C(=N[O-])C(=O)N(C)C1=O.[Co+3]
inactive: [8] 100 % of control | dose: 100.0 mg/kg/injection, schedule: Q01DX005 (ip), vehicle: saline with Tween-80 119 % of control | dose: 200.0 mg/kg/injection, schedule: Q01DX005 (ip), vehicle: saline with Tween-80 107 % of control

CNC(=O)C1OC(n2cnc3c(N)ncnc32)C(O)C1O (stereo not given)
inactive: dose: 0.78 mg/kg/injection, schedule: Q01DX005 (ip), vehicle: saline with Tween-80 109 % of control and 110 % of control and 120 % of control | dose: 1.56 mg/kg/injection, schedule: Q01DX005 (ip), vehicle: saline with Tween-80 113 % of control and 114 % of control and 116 % of control | dose: 3.13 mg/kg/injection, schedule: Q01DX005 (ip), vehicle: saline with Tween-80 117 % of control

Cc1ccc(-c2csc3nc(C)c(CN4CCCCC4)c(=O)n23)cc1
inactive: dose: 75.0 mg/kg/injection, schedule: Q04DX002 (ip), vehicle: Klucel (hydroxypropylcellulose) (HPC) 113 % of control | dose: 150.0 mg/kg/injection, schedule: Q04DX002 (ip), vehicle: Klucel (hydroxypropylcellulose) (HPC) 103 % of control | dose: 300.0 mg/kg/injection, schedule: Q04DX002 (ip), vehicle: Klucel (hydroxypropylcellulose) (HPC) 113 % of control

COC(=O)c1cc(-c2ccc(C)cc2)c2c(=O)n(-c3ccccc3)[nH]c2n1
inactive: dose: 60.0 mg/kg/injection, schedule: Q01DX005 (ip), vehicle: saline with Tween-80 100 % of control | dose: 120.0 mg/kg/injection, schedule: Q01DX005 (ip), vehicle: saline with Tween-80 100 % of control | dose: 240.0 mg/kg/injection, schedule: Q01DX005 (ip), vehicle: saline with Tween-80 97 % of control
